Laboratory results: patent publication US11725217B2, “Methods to enhance myocardial regeneration and/or repair” (Regents of the University of Minnesota, priority 2018, dated 2023)
Where a SMILES comes first, the peptide text is derived from it. The star is where a group is joined. Cbz = O=C(OCc1ccccc1)*; CH2F = FC*

Experiments:
[1] = tested on: isolated mouse neonatal cardiomyocytes; test: Proliferation of cultured neonatal (P1) cardiomyocytes (cell number, EdU incorporation, Ki67, FACS); format: cell-based; conditions: for EdU+ cardiomyocytes: pan-caspase inhibition experiment, 48 h, SAG with/without pan-caspase inhibition; for Ki67+-Actinin+ cells: versus DMSO control
Experimental: Immunohistochemistry was performed on cryosections (10 μm thick) using standard procedures (Singh et al., 2012; Singh et al. 2007; Adhikari et al., 2011; Singh et al., 2010). Briefly, sections were rehydrated, permeabilized and blocked with 10% normal donkey serum (NDS), 0.1% Triton X-100 in PBS at room temperature and incubated overnight at 4° C. with primary antibodies: α-actinin (Abeam; 1:300), desmin (Novus biologicals; 1:300), Shh (Santa Cruz Biotechnology; 1:200), endomucin (Abeam; 1:100), SM22 (Abeam; 1:400), α-phospho-Histone H3 (Ser10) (Millipore; 1:100), Ki67 (Abcam; 1:200), PCNA (Santa Cruz Biotechnology; 1:100), Mef2a (Santa Cruz Biotechnology; 1:100), Smoothened (Abcam; 1:200), Nkx 2-5 (Santa Cruz Biotechnology; 1:100) and GFP (ThermoFisher Scientific; 1:300) sera. Sections were rinsed and incubated with combinations of secondary antibodies (1:400) including Alexa 488, Alexa 594, Cy3 and Cy5 (Jackson ImmunoResearch Laboratories). EdU staining was performed using the EdU labeling kit (Life Technologies)
Ventricular cardiomyocytes were isolated using previously published protocols (Collesi et al. 2008). Briefly, ventricles were dissected from P1 pups, minced in CBFHH (calcium and bicarbonate-free Hanks with Hepes) buffer. Subsequently, the minced ventricles were digested in CBFHH buffer containing 1.75 mg/ml of trypsin and 20 μg/ml of DNaseII (Sigma-Aldrich). Cells were preplated for 1 h (3 times) onto 100-mm primaria (Corning Life Sciences) dishes in culture medium containing 10% serum to remove fibroblasts. Unattached cardiomyocytes were plated at a desired density. […] After 12 h, the culture medium was changed and cells were subjected to the different treatments (SAG; 4 μg/mL and CyA; 5 μg/ml) and analyzed. For apoptotic pathway inhibition, neonatal cardiomyocytes were treated with cell permeable small molecule inhibitor (Z-VAD-FMK; R&D Systems) with or with SAG. For the EdU incorporation assay, cardiomyocytes were incubated with 20 μM EdU for 48 h and fixed using 4% PFA for 10 min at room temperature. […] For qPCR and FACS analysis, cells were harvested using trypsin and processed for further analysis. […] For the EdU incorporation assay, cardiomyocytes were incubated with 20 μM EdU for 48 h and fixed using 4% PFA for 10 min at room temperature.

regenerating newt heart = conditions: continuous blockade of HH signals, CyA 2 μg/mL in aquarium water daily; n=8, p<0.05
Experimental: Adult red-spotted newts, Notophthalmus viridescens, were housed as described in Singh et al. (2012). For heart resection surgery, adult newts were anesthetized in 0.1% MS-222 solution for 10 min. Each newt was placed in a supine position under a stereomicroscope. The outer skin was wiped using 70% ethanol-chlorhexidine solution and the pericardial sac was opened to expose the heart. The apex of the ventricle was resected (˜25-30%) using iricdectomy scissors. Following resection, the blood flow was controlled by the formation of the blood clot. The resected heart was maneuvered carefully into the pericardial sac and sutured using 8.0 ethilon monofilament sutures. Following resection surgery, newts were allowed to recover in an isolated tank containing sulfmerazine antibiotic solution and later placed in their designated aquariums. The resected ventricular mass was measured using a Sartorius weighing balance. […] CyA-mediated inhibition of HH signaling was achieved by daily treatment of the resected newts at 2 μg/mL diluted in the aquarium water. At specified time periods, animals were sacrificed and tissues were collected for further processing. For EdU labelling, the resected newts were injected intraperitoneally (i.p.) with 100 μg/gm of EdU for a 7 day period prior to sacrifice and harvested for immunohistochemical analysis. […]

HH signaling [2] = test: qPCR of HH pathway and cell cycle transcripts in neonatal cardiomyocytes; format: cell-based, mouse; conditions: for Gli1 expression (qPCR) / Gli3 expression (qPCR) / Mycn transcripts (qPCR): isolated mouse neonatal cardiomyocytes
Experimental: (§1) RNA isolation and qPCR analysis from newt tissue was performed as previously described^5. For chamber based qPCR analysis, the regenerating heart including BA, AT and ventricle was harvested and rinsed in PBS to remove blood cells. Subsequently, the BA, AT and ventricle were collected from heart tissue (n=12) for further processing. RNA isolation from cultured cardiomyocytes was performed using a standard protocol as per the manufacturer's instructions. Total RNA was isolated using the miRVANA kit (Ambion) and cDNA was made using SuperScript […] kit (Invitrogen).
Briefly, ventricles were dissected from P1 pups, minced in CBFHH (calcium and bicarbonate-free Hanks with Hepes) buffer. […] Cells were preplated for 1 h (3 times) onto 100-mm primaria (Corning Life Sciences) dishes in culture medium containing 10% serum to remove fibroblasts. Unattached cardiomyocytes were plated at a desired density. […] For apoptotic pathway inhibition, neonatal cardiomyocytes were treated with cell permeable small molecule inhibitor (Z-VAD-FMK; R&D Systems) with or with SAG. For the EdU incorporation assay, cardiomyocytes were incubated with 20 μM EdU for 48 h and fixed using 4% PFA for 10 min at room temperature. […] For qPCR and FACS analysis, cells were harvested using trypsin and processed for further analysis. For the time-lapse microscopic experiments, isolated P7 mCherry+ cardiomyocytes were plated on glass-bottom petri dish coated with fibronectin. After 2 h of attachment, media was changed containing DMSO or SAG and the petri dish was placed in the environmental chamber for imaging. […] Briefly, the adult heart tissue was dissociated by perfusion of a collagenase type 2 enzyme solution. Isolated cardiomyocytes were cultured in 1% serum media in the presence of DMSO or SAG. For the EdU incorporation assay, cardiomyocytes were incubated with 20 μM EdU for 48 h and fixed using 4% PFA for 10 min at room temperature.

[3] = tested on: adult mouse cardiomyocytes; test: EdU incorporation in isolated adult cardiomyocytes; format: cell-based; conditions: n=3, p<0.05
Experimental: (§2) Ventricular cardiomyocytes were isolated using previously published protocols (Collesi et al. 2008). Briefly, ventricles were dissected from P1 pups, minced in CBFHH (calcium and bicarbonate-free Hanks with Hepes) buffer. Subsequently, the minced ventricles were digested in CBFHH buffer containing 1.75 mg/ml of trypsin and 20 μg/ml of DNaseII (Sigma-Aldrich). Cells were preplated for 1 h (3 times) onto 100-mm primaria (Corning Life Sciences) dishes in culture medium containing 10% serum to remove fibroblasts. Unattached cardiomyocytes were plated at a desired density. Using this protocol, we routinely obtained >85-90% cardiomyocytes (confirmed using immunohistochemical techniques and an alpha-actinin antibody). […] For apoptotic pathway inhibition, neonatal cardiomyocytes were treated with cell permeable small molecule inhibitor (Z-VAD-FMK; R&D Systems) with or with SAG. For the EdU incorporation assay, cardiomyocytes were incubated with 20 μM EdU for 48 h and fixed using 4% PFA for 10 min at room temperature. P7 cardiomyocytes were isolated using a similar protocol as that of the P1 cardiomyocyte isolation protocol with modifications including the perfusion based tissue digestion using collagenase type-2 enzyme solution. >95% rod-shaped binucleated cardiomyocytes were routinely obtained using this protocol. […]

HH signaling [4] = test: qPCR in P7 cardiomyocytes; format: cell-based, mouse; conditions: P7-isolated cardiomyocytes
Experimental: as §1
Ventricular cardiomyocytes were isolated using previously published protocols (Collesi et al. 2008). Briefly, ventricles were dissected from P1 pups, minced in CBFHH (calcium and bicarbonate-free Hanks with Hepes) buffer. Subsequently, the minced ventricles were digested in CBFHH buffer containing 1.75 mg/ml of trypsin and 20 μg/ml of DNaseII (Sigma-Aldrich). Cells were preplated for 1 h (3 times) onto 100-mm primaria (Corning Life Sciences) dishes in culture medium containing 10% serum to remove fibroblasts. Unattached cardiomyocytes were plated at a desired density. Using this protocol, we routinely obtained >85-90% cardiomyocytes (confirmed using immunohistochemical techniques and an alpha-actinin antibody). […]

P7 cardiomyocytes = test: Proliferation of isolated P7 cardiomyocytes (EdU incorporation, time-lapse microscopy); format: cell-based, mouse
Experimental: Ventricular cardiomyocytes were isolated using previously published protocols (Collesi et al. 2008). Briefly, ventricles were dissected from P1 pups, minced in CBFHH (calcium and bicarbonate-free Hanks with Hepes) buffer. Subsequently, the minced ventricles were digested in CBFHH buffer containing 1.75 mg/ml of trypsin and 20 μg/ml of DNaseII (Sigma-Aldrich). Cells were preplated for 1 h (3 times) onto 100-mm primaria (Corning Life Sciences) dishes in culture medium containing 10% serum to remove fibroblasts. Unattached cardiomyocytes were plated at a desired density. Using this protocol, we routinely obtained >85-90% cardiomyocytes (confirmed using immunohistochemical techniques and an alpha-actinin antibody). […] For apoptotic pathway inhibition, neonatal cardiomyocytes were treated with cell permeable small molecule inhibitor (Z-VAD-FMK; R&D Systems) with or with SAG. For the EdU incorporation assay, cardiomyocytes were incubated with 20 μM EdU for 48 h and fixed using 4% PFA for 10 min at room temperature. P7 cardiomyocytes were isolated using a similar protocol as that of the P1 cardiomyocyte isolation protocol with modifications including the perfusion based tissue digestion using collagenase type-2 enzyme solution. >95% rod-shaped binucleated cardiomyocytes were routinely obtained using this protocol. For qPCR and FACS analysis, cells were harvested using trypsin and processed for further analysis. For the time-lapse microscopic experiments, isolated P7 mCherry+ cardiomyocytes were plated on glass-bottom petri dish coated with fibronectin. After 2 h of attachment, media was changed containing DMSO or SAG and the petri dish was placed in the environmental chamber for imaging. Adult cardiomyocyte isolation was performed (Mahmoud et al., 2013). Briefly, the adult heart tissue was dissociated by perfusion of a collagenase type 2 enzyme solution. Isolated cardiomyocytes were cultured in 1% serum media in the presence of DMSO or SAG. For the EdU incorporation assay, cardiomyocytes were incubated with 20 μM EdU for 48 h and fixed using 4% PFA for 10 min at room temperature.

[5] = tested on: isolated mouse neonatal cardiomyocytes; test: Live/dead assay in cultured neonatal cardiomyocytes; format: cell-based; conditions: 48 h; n=3
Experimental: as §2

day-60 hiPSC-CMs = test: Proliferation of day-60 hiPSC-derived cardiomyocytes (EdU, Ki67); format: cell-based, human; conditions: 48 h, n=3, p<0.01
Experimental: The media was then changed with RPMI/B27 minus insulin and BMP4 and FGF from d1-d2. On d3, the medium was changed with RPMI/B27 minus insulin and IWP-4. The differentiated cells were maintained in RPMI/B27 with insulin media from d5-d60. […] Immunohistochemical analysis was performed as described previously.

## COC(=O)C[C@H](NC(=O)[C@H](C)NC(=O)[C@@H](NC(=O)OCc1ccccc1)C(C)C)C(=O)CF [pan-caspase inhibitor, Z-VAD-FMK] (Cbz-Val-Ala-Asp(OMe)-CH2F)
[1]; n=3
  EdU+ cardiomyocytes: did not result in any change

## CC1=C2C[C@H]3[C@@H](CC=C4C[C@@H](O)CC[C@@]43C)[C@@H]2CC[C@]12O[C@@H]1C[C@H](C)CN[C@H]1[C@H]2C [CyA, Cyclopamine]
Regenerating newt heart
  heart regeneration following injury: complete ablation of heart regeneration and induction of scar formation
HH signaling [2]
  Gli1 expression (qPCR): reduced
  Gli3 expression (qPCR): increased
  Mycn transcripts (qPCR): reduced expression
[1]; n=3
  Ki67+-Actinin+ cells: not detected

## CNC1CCC(N(Cc2cccc(-c3ccncc3)c2)C(=O)c2sc3ccccc3c2Cl)CC1 (stereo not drawn) [SAG]
[3]
  α-Actinin+-EdU+ cardiomyocytes: increased number
HH signaling [4]
  expression of Cdkn1b (p27) (qPCR): reduced expression
  expression of Ptc1, Ccne1 and Ccnd2 (qPCR): increased expression
P7 cardiomyocytes; P7 cardiomyocytes, n=4
  α-Actinin+-EdU+ cardiomyocytes: increased number
P7 cardiomyocytes; P7 cardiomyocytes, n=4, p<0.05
  increase in number of mono-, bi-, and multi-nucleated cardiomyocytes: ~3 fold
P7 cardiomyocytes; none found in DMSO control
  dividing αMHC-mCherry+ P7 cardiomyocytes (time-lapse microscopy): multiple dividing
[5]
  live/dead assay versus control: No difference
day-60 hiPSC-CMs
  increased α-Actinin+-EdU+ cardiomyocytes: 2 fold
  increased α-Actinin+-Ki67+ cardiomyocytes: ~3 fold
HH signaling [2]; HH signaling activation
  Ptc1, Ccnd2, Ccnd1 and Ccne1 transcripts (qPCR): induction of cell cycle kinetics
HH signaling [2]
  Gli1 expression (qPCR): induced
  Gli3 expression (qPCR): reduced
  Mycn transcripts (qPCR): increased
HH signaling [2]; versus control, data not shown
  levels of caspase-3 transcripts (qPCR): unaltered
[1]; SAG 4 μg/mL, EdU 48 h, n=4, p<0.05
  increase in α-Actinin+-EdU+ cells compared to controls: 2.5 fold
[1]; n=3, p<0.05
  increased cardiomyocyte proliferation, FACS analysis of α-Actinin+-EdU+ population: 2.5 fold
[1]; n=3
  EdU+ cardiomyocytes: comparable increase
  Ki67+-Actinin+ cells: increased number
[1]; serum-free conditions, n=3, p<0.05
  cardiomyocyte proliferation (α-Actinin+-EdU+): increased cardiomyocyte proliferation
[1]; various concentrations
  number of cultured neonatal cardiomyocytes: dose-dependent increase

## c1ccc2c(Oc3nc(Nc4ccc(N5CCOCC5)cc4)c4ncn(C5CCCCC5)c4n3)cccc2c1 [Purmorphamine]
[1]; isolated neonatal cardiomyocytes pulsed with EdU, FIG. 20
  cardiomyocyte proliferation (Actinin+-EdU+, immunohistochemical images): promotes cardiomyocyte proliferation
